In US20050282743A1, “Molecular interactions in cells” (Arbor Vita Corporation, priority 2001, published 2005):
One block for each molecule: values may come before it. Ends that are not written are not given here. Peptide text beside a SMILES is read from it. * marks the point of attachment. Biotin = O=C1N[C@H]2[C@H](CS[C@H]2CCCCC(=O)*)N1

Key:
[1] = biological target: T1, PDZ protein (GST-PDZ fusion) (Homo sapiens, UniProt Q92796); test: G' assay (10 uM PL peptide), results of TABLE 7 and TABLE 12; format: binding; settings: PDZ NeDLG
T1 construct: made in house; host or cells: E. coli (DH5alpha, BL21 or JM109)
T1 sequence (Q92796 1-817): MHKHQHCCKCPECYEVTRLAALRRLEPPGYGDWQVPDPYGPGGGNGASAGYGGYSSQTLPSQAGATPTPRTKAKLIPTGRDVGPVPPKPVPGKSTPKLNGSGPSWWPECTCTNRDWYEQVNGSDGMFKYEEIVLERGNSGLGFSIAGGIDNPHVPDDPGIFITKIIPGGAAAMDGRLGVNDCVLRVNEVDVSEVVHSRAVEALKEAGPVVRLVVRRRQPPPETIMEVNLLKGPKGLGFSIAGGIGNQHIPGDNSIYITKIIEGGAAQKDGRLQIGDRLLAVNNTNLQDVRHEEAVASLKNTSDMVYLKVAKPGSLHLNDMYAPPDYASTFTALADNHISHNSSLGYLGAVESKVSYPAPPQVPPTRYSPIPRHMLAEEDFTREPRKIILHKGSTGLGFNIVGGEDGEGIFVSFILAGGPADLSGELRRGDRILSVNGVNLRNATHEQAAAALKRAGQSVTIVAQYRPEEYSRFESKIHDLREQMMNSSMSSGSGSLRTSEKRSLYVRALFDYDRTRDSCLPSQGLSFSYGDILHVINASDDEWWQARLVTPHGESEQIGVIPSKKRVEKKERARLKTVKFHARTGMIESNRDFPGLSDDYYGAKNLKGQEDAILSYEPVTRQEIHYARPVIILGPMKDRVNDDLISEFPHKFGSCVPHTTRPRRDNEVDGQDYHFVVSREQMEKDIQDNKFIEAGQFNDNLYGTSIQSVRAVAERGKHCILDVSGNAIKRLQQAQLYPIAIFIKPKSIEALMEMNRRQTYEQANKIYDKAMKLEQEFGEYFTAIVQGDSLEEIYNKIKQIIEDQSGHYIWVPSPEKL
Summary of the method: (§1)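 Same steps as the G-zero format, apart from a peptide concentration of 10 uM in place of 20 uM in step 2. Amino-terminally biotinylated PL peptides bind GST-PDZ fusions, and retained peptide is quantified by 450 nm absorbance.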

[2] = biological target: T2, PDZ protein (GST-PDZ fusion) (Homo sapiens, UniProt Q86UL8); test: as above; format: binding
T2 construct: made in house; host or cells: E. coli (DH5alpha, BL21 or JM109)
T2 sequence (Q86UL8 whole entry, the tested form may be a part): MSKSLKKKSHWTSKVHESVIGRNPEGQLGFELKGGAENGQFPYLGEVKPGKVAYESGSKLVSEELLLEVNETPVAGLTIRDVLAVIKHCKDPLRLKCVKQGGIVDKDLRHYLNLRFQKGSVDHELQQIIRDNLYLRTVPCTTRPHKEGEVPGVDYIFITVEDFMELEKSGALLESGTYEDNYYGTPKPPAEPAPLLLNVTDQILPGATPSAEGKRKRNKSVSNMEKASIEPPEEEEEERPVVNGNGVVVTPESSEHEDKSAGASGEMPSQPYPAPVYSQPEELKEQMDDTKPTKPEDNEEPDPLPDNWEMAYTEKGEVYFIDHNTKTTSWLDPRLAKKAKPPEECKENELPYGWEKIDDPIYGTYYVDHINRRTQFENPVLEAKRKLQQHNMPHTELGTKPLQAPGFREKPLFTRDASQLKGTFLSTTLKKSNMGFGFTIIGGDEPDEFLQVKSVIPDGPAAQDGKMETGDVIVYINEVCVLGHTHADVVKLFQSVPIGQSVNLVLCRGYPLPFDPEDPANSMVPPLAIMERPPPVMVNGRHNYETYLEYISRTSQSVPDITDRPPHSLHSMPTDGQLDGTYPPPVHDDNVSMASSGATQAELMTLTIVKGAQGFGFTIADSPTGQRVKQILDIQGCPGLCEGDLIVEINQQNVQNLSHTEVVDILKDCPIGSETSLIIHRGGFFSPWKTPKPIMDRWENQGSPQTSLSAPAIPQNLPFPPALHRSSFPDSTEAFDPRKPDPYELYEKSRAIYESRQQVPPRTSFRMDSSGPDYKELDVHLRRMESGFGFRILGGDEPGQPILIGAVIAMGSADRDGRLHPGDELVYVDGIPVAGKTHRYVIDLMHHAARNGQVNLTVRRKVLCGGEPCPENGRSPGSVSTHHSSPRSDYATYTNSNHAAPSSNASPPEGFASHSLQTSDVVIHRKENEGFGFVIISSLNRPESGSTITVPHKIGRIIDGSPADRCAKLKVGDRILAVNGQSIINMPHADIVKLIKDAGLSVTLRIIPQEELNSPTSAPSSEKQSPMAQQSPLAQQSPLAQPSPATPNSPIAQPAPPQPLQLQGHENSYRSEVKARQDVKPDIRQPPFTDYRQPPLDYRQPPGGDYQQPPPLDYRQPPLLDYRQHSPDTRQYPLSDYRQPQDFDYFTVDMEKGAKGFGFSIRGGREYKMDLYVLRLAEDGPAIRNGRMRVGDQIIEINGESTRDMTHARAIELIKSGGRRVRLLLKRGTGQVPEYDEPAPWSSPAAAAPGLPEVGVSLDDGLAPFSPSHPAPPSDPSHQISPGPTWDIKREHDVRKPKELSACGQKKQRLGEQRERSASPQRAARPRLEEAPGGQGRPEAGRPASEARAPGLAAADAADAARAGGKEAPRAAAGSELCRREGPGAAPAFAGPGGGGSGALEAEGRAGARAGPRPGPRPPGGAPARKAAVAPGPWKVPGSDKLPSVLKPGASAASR
Summary of the method: as §1

[3] = PDZ Atrophin-1 Inter. Prot., PDZ Domain 5
[4] = PDZ atrophin-1 interacting Protein, PDZ Domain 3
[5] = PDZ atrophin-1 interacting Protein (Atrophin-1 Inter. Prot.), PDZ Domain 1
[6] = PDZ atrophin-1 interacting Protein, PDZ Domain 1

Molecule: ISGTPTSTMVHGMTSSSSVV (Biotin-ISGTPTSTMVHGMTSSSSVV) [Clasp-2]
Classification ([1]; PDZ Domain 2): 1 (A450 nm 0-1)

Classification ([1]; PDZ Domain 1, 2): 2 (A450 nm 1-2)
Molecule: RNIEEVYVGGKQVVPFSSSV (Biotin-RNIEEVYVGGKQVVPFSSSV) [Nedasin (s-form)]

Classification [2, 3]: 5 (A450 nm of 4 more than 2× repeated)
Classification [2, 4]: 1 (A450 nm 0-1)
Classification ([1]; PDZ Domain 3): 1 (A450 nm 0-1)
Molecule: PYSELNYETSHYPASPDSWV (Biotin-PYSELNYETSHYPASPDSWV) [catenin - delta 2]

Classification [2, 3]: 1 (A450 nm 0-1)
Molecule: QATSRNGHSARQHVVADTEL (Biotin-QATSRNGHSARQHVVADTEL) [CD34]

Classification ([1]; PDZ Domain 1, 2): 1 (A450 nm 0-1)
Molecule: SLKPGTVLPPPPYRHRNTVV (Biotin-SLKPGTVLPPPPYRHRNTVV) [ErbB-4 receptor]

Classification ([1]; PDZ Domain 1, 2): 4 (A450 nm 3-4)
Molecule: APC—adenomatous polyposis coli protein (ESSGTQSPKRHSGSYLVTSV)

Molecule: CC(C)C[C@H](NC(=O)[C@H](C)NC(=O)[C@@H](NC(=O)[C@H](CCC(=O)O)NC(=O)[C@H](CCCNC(=N)N)NC(=O)[C@H](CCCNC(=N)N)NC(=O)CNC(=O)[C@H](CCC(N)=O)NC(=O)[C@H](CC(C)C)NC(=O)[C@H](CCCNC(=N)N)NC(=O)CNC(=O)CNC(=O)[C@H](CCCNC(=N)N)NC(=O)[C@H](C)NC(=O)[C@H](CO)NC(=O)[C@H](CCCNC(=N)N)NC(=O)CNC(=O)CNC(=O)[C@H](C)NC(=O)[C@H](C)NC(=O)CCCC[C@@H]1SC[C@@H]2NC(=O)N[C@@H]21)[C@@H](C)O)C(=O)O [HPV E6 33 (modified)] (Biotin-AAGGRSARGGRLQGRRETAL-OH; C-terminus assumed)
Classification [2, 3]: 1 (A450 nm 0-1)
Classification [2, 5]: 4 (A450 nm 3-4)
Classification ([1]; PDZ Domain 1): 1 (A450 nm 0-1)
Classification ([1]; PDZ Domain 1, 2): 5 (A450 nm of 4 more than 2× repeated)
Classification ([1]; PDZ Domain 2): 2 (A450 nm 1-2)
Classification ([1]; PDZ Domain 3): 1 (A450 nm 0-1)

Classification [2, 3]: 1 (A450 nm 0-1)
Molecule: CC[C@H](C)[C@H](NC(=O)[C@H](CO)NC(=O)[C@H](CCC(=O)O)NC(=O)[C@H](Cc1ccc(O)cc1)NC(=O)[C@H](CC(=O)O)NC(=O)[C@H](CC(N)=O)NC(=O)[C@H](CCC(=O)O)NC(=O)[C@H](CCCCN)NC(=O)CCCC[C@@H]1SC[C@@H]2NC(=O)N[C@@H]21)C(=O)N[C@@H](CO)C(=O)N[C@@H](CC(=O)O)C(=O)N[C@@H](CC(C)C)C(=O)N[C@@H](CCC(N)=O)C(=O)N[C@@H](CCC(N)=O)C(=O)NCC(=O)N[C@@H](CCCNC(=N)N)C(=O)N[C@@H](CC(=O)O)C(=O)N[C@H](C(=O)N[C@H](C(=O)N[C@@H](CCCNC(=N)N)C(=O)N[C@@H](CC(C)C)C(=O)O)[C@@H](C)O)[C@@H](C)CC [PAG] (Biotin-KENDYESISDLQQGRDITRL-OH; C-terminus assumed)

Classification [2, 3]: 5 (A450 nm of 4 more than 2× repeated)
Classification [2, 6]: 5 (A450 nm of 4 more than 2× repeated)
Classification [2, 4]: 2 (A450 nm 1-2)
Classification ([1]; PDZ Domain 1): 2 (A450 nm 1-2)
Classification ([1]; PDZ Domain 1, 2): 5 (A450 nm of 4 more than 2× repeated)
Classification ([1]; PDZ Domain 2): 5 (A450 nm of 4 more than 2× repeated)
Classification ([1]; PDZ Domain 3): 1 (A450 nm 0-1)
Molecule: TQGFPGPATWRRISSLESEV

Classification [2, 3]: 1 (A450 nm 0-1)
Classification ([2]; PDZ Atrophin-1 Inter. Prot., PDZ Domain 6): 1 (A450 nm 0-1)
Molecule: A2AA_HUMAN (modified) (Biotin-HDFRRAFKKILARGDRKRIV; not fully specified)

Molecule: CC(C)C[C@H](NC(=O)[C@H](CCCNC(=N)N)NC(=O)CNC(=O)CNC(=O)[C@H](CCCNC(=N)N)NC(=O)[C@H](C)NC(=O)[C@@H]1CCCN1C(=O)[C@H](CCCNC(=N)N)NC(=O)CNC(=O)CNC(=O)[C@@H](NC(=O)[C@H](C)NC(=O)CCCC[C@@H]1SC[C@@H]2NC(=O)N[C@@H]21)C(C)C)C(=O)N[C@@H](CCC(N)=O)C(=O)NCC(=O)N[C@@H](CCCNC(=N)N)C(=O)N[C@@H](CCCNC(=N)N)C(=O)N[C@@H](CCC(N)=O)C(=O)N[C@H](C(=O)N[C@@H](CCC(N)=O)C(=O)N[C@H](C(=O)O)C(C)C)[C@@H](C)O [HPV E6 58 (modified)] (Biotin-AVGGRPARGGRLQGRRQTQV-OH; C-terminus assumed)
Classification [2, 5]: 5 (A450 nm of 4 more than 2× repeated)
Classification ([1]; PDZ Domain 1): 1 (A450 nm 0-1)
Classification ([1]; PDZ Domain 1, 2): 5 (A450 nm of 4 more than 2× repeated)
Classification ([1]; PDZ Domain 2): 5 (A450 nm of 4 more than 2× repeated)
Classification ([1]; PDZ Domain 3): 2 (A450 nm 1-2)

Classification [2, 3]: 1 (A450 nm 0-1)
Molecule: LASKSAEEGKQIPDSLSTDL (Biotin-LASKSAEEGKQIPDSLSTDL) [Dock2]

Classification [2, 3]: 2 (A450 nm 1-2)
Classification [2, 6]: 1 (A450 nm 0-1)
Classification [2, 4]: 2 (A450 nm 1-2)
Molecule: ELLQFCRTPNPALKNGQYWV (Biotin-ELLQFCRTPNPALKNGQYWV)

Classification [2, 3]: 1 (A450 nm 0-1)
Classification ([1]; PDZ Domain 1, 2): 1 (A450 nm 0-1)
Molecule: CC[C@H](C)[C@H](NC(=O)[C@H](Cc1c[nH]cn1)NC(=O)[C@H](C)NC(=O)[C@H](C)NC(=O)[C@H](CO)NC(=O)[C@@H]1CCCN1C(=O)[C@H](CCCNC(=N)N)NC(=O)[C@H](CC(=O)O)NC(=O)[C@H](CCCCN)NC(=O)[C@@H]1CCCN1C(=O)[C@H](CC(=O)O)NC(=O)[C@H](CCC(=O)O)NC(=O)CCCC[C@@H]1SC[C@@H]2NC(=O)N[C@@H]21)C(=O)N[C@H](C(=O)N[C@@H](CCC(=O)O)C(=O)N[C@@H](C)C(=O)N[C@@H](CC(C)C)C(=O)N[C@@H](CCC(=O)O)C(=O)N[C@H](C(=O)N[C@@H](CC(=O)O)C(=O)N[C@H](C(=O)O)C(C)C)[C@@H](C)O)C(C)C [PDZ-binding kinase (PBK)] (Biotin-EDPKDRPSAAHIVEALETDV-OH; C-terminus assumed)

Classification [2, 6]: 1 (A450 nm 0-1)
Classification ([1]; PDZ Domain 1, 2): 1 (A450 nm 0-1)
Molecule: CC[C@H](C)[C@H](NC(=O)[C@H](CCC(=O)O)NC(=O)[C@H](CO)NC(=O)[C@H](CCC(=O)O)NC(=O)[C@H](CCCNC(=N)N)NC(=O)[C@H](CCCNC(=N)N)NC(=O)[C@H](CC(C)C)NC(=O)[C@@H]1CCCN1C(=O)[C@H](CCCNC(=N)N)NC(=O)[C@@H]1CCCN1C(=O)[C@H](CCC(=O)O)NC(=O)[C@H](CC(C)C)NC(=O)[C@@H]1CCCN1C(=O)[C@@H](NC(=O)[C@H](CO)NC(=O)[C@H](C)NC(=O)[C@H](CCC(N)=O)NC(=O)[C@H](CC(N)=O)NC(=O)[C@H](Cc1c[nH]cn1)NC(=O)[C@H](CC(C)C)NC(=O)CCCC[C@@H]1SC[C@@H]2NC(=O)N[C@@H]21)C(C)C)C(=O)O [Kir2.1 (inwardly rect. K+ channel)] (Biotin-LHNQASVPLEPRPLRRESEI-OH; C-terminus assumed)

Classification ([1]; PDZ Domain 1, 2): 2 (A450 nm 1-2)
Molecule: GGGGGSGGGGGSGIESVKI [GLUR2 (glutamate receptor 2-modified)]

Molecule: CC[C@H](C)[C@H](NC(=O)[C@H](CCC(N)=O)NC(=O)CCCC[C@@H]1SC[C@@H]2NC(=O)N[C@@H]21)C(=O)N[C@@H](CO)C(=O)N1CCC[C@H]1C(=O)NCC(=O)NCC(=O)N[C@@H](CC(C)C)C(=O)N[C@@H](CCC(=O)O)C(=O)N1CCC[C@H]1C(=O)N1CCC[C@H]1C(=O)N[C@@H](CO)C(=O)N[C@@H](CCC(=O)O)C(=O)N[C@@H](CCCCN)C(=O)N[C@@H](Cc1c[nH]cn1)C(=O)N[C@@H](Cc1ccccc1)C(=O)N[C@@H](CCCNC(=N)N)C(=O)N[C@@H](CCC(=O)O)C(=O)N[C@H](C(=O)N[C@@H](CCC(=O)O)C(=O)N[C@H](C(=O)O)C(C)C)[C@@H](C)O [Tax]
Classification [2, 3]: 3 (A450 nm 2-3)
Classification [2, 5]: 5 (A450 nm of 4 more than 2× repeated)
Classification ([2]; PDZ atrophin-1 interacting Protein, PDZ Domain 2): 1 (A450 nm 0-1)
Classification [2, 4]: 1 (A450 nm 0-1)
Classification ([1]; PDZ Domain 2): 5 (A450 nm of 4 more than 2× repeated)
Classification ([1]; PDZ Domain 3): 5 (A450 nm of 4 more than 2× repeated)
